Laboratory results taken from ChEMBL document CHEMBL5579843, “Multimechanism biological profiling of tetrahydro-β-carboline analogues as selective HDAC6 inhibitors for the treatment of Alzheimer's disease” (Eur J Med Chem, 2024).
The source made the active and inactive calls. The rule behind the calls is not given here.

What was measured:
Histone deacetylase 8 = molecular target: T1, Histone deacetylase 8 (Homo sapiens, UniProt Q9BY41); assay: Inhibition of HDAC8 (unknown origin)
T1 sequence (Q9BY41 whole entry): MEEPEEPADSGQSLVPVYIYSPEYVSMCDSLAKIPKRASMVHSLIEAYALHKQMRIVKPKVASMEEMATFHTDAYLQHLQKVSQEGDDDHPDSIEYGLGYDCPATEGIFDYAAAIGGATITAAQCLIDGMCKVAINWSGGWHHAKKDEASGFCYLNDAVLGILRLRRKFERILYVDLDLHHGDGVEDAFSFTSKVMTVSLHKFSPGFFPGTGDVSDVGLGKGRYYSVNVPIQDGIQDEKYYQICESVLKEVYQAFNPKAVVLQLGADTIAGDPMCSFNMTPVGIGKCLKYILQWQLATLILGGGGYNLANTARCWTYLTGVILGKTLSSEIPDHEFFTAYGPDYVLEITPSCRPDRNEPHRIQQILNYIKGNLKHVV

[1] = molecular target: T2, Polyamine deacetylase HDAC10 (Homo sapiens, UniProt Q969S8); assay: Inhibition of HDAC10 (unknown origin) by TR-FRET assay
T2 sequence (Q969S8 whole entry): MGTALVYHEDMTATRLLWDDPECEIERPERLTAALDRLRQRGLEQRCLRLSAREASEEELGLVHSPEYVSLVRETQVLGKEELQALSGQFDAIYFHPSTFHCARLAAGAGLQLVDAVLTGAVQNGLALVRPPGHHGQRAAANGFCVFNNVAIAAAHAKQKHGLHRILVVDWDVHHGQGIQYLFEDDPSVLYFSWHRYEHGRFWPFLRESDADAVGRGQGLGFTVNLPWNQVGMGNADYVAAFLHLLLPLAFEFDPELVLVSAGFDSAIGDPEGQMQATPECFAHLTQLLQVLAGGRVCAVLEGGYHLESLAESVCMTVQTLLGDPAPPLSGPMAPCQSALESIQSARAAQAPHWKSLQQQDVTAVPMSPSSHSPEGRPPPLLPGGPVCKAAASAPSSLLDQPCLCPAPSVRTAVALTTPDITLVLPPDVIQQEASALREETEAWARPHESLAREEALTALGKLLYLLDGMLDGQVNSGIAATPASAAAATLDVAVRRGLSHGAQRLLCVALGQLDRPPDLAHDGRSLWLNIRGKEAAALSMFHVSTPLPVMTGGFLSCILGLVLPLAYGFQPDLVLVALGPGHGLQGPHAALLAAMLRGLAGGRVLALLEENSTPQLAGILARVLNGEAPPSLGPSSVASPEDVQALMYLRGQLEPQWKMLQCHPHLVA

Danio rerio = organism: Danio rerio; assay: Cognitive improvement ability in scopolamine induced zebrafish alzheimer disease model assessed as improvement in motor activity by measuring increase in total distance of swimming at 1 mg/L pretreated with scopolamine for 30 mins followed by compound addition for 3 mins by T-maze test; assay type: functional, organism-based

## O=C(NO)c1ccc(CN2CCc3c(n(CC4CC4)c4ccc(F)cc34)C2)cc1
Histone deacetylase 8
  IC50: 1950 nM
[1]
  IC50: 524 nM
Danio rerio
  Activity: Active
